Measurements reported in patent publication US4762789A, “Serodiagnostic reagent for entamoeba histolytica” (priority 1986, dated 1988).
Read-outs that look alike come from different tables or passages of the source. Non-standard residues stand in square brackets, D forms with d. Residues, ends and D or L forms follow the SMILES beside them. *: point of attachment. Sta = CC(C)C[C@H](N)[C@@H](O)CC(=O)O; Isovaleryl = CC(C)CC(=O)*

Legend:
[1] = system: culture supernatant proteinase activity (Entamoeba histolytica trophozoites); test: Inhibition of culture supernatant proteolytic activity, Z-Arg-Arg-AMC assay; type: biochemical
Procedure: (§1) "Log-phase" trophozoites (72 hours after passage) were washed to remove serum, and incubated in PBS with penicillin/streptomycin for 3 hours at 37° C. Amebae maintained greater than 90% viability as judged by Trypan blue exclusion and the absence of cytosolic alcohol dehydrogenase activity (Vallee 1955) in the PBS after incubation. Amebae were centrifuged, and the resulting supernatant passed through a 0.45 micron filter. This was designated as crude culture supernatant (CS).
The Z-Arg-Arg-AMC assay is based on the fluorescence of the cleaved AMC group at 460 nm when excited at 380 nm (Castillo, et al, 1979). Enzyme samples (5-25 microliters) were added to a 4 micromolar solution of Z-Arg-Arg-AMC in buffer to a total volume of 2 ml. The rate of substrate hydrolysis at room temperature was determined from the rate of increase of fluorescence, monitored on a continuously recording spectrofluorometer (Aminco SPF-500; American Instrument Co., Silver Spring, MD). The scale was calibrated with a stock solution of 1.3 micromolar AMC (Sigma).
(§2) Inhibitors were preincubated with the enzyme at the indicated concentrations (See Table 1) for 20 minutes at ambient temperature; substrate was then added and proteolytic activity assayed against Z-Arg-Arg-AMC. All inhibitors were obtained from Sigma except pepstatin A (Transformation Research, Inc., Farminham, MA) and bovine serum (Biofluids). TLCK was prepared as a stock solution in dimethyl sulfoxide (DMSO). Phenlylmethylsulfonyl fluoride (PMSF), pepstatin A, and 1,10-phenanthroline stock solutions were made up in ethanol. An equal volume of DMSO or ethanol alone was tested with enzynme and inhibition was calculated relative to the appropriate solvent control.

[2] = system: Mono P-purified enzyme (neutral thiol proteinase); test: Inhibition of MonoP purified enzyme, Azocoll assay; type: biochemical, Entamoeba histolytica; settings: for Activity as % of control (without inhibitor), Mono P-purified Enzyme: Azocoll assay; for Effect of inhibitor on proteolytic activity of purified enzyme: at the concentrations tested (Table I)
Procedure: Fractions of peak activity from the anion exchange column were pooled and dialyzed overnight against buffer (25 mM bis-Tris, 2 mM DTT, pH 7.1) and applied to a MonoP chromatofocusing column at a flow rate of 0.25 ml/min. Typically, about 3 ml at 0.5 mg/ml were injected. Protein was eluted at a flow rate of 0.5 ml/min over a pH gradient of 7-5 formed with 10% Polybuffer 74, pH 5. (Polybuffer 74 is the Trademark of Pharmacia Inc., 800 Centennial Avenue, Piscataway, NJ 08854 for an amphoteric chromatofocusing buffer.) The gradient was generated with the GP-250 gradient programmer and continuously monitored with a pH meter and flow cell. Fractions were collected and checked for activity as described above.
(§3) Azocollytic activity was measured by incubation of 3 mg Azocoll with 10-100 microliters of enzyme (1 ml reaction volume) for 3-16 hours at 37° C. The tubes were then vortexed, microfuged, and the amount of degradation determined from the absorbance of the supernatant at 540 nm (A540). Control tubes were incubated without enzyme; bovine trypsin (5 micrograms; Sigma) was used to determine the total available substrate.
as §2, with “All” for “Inhibitors were preincubated with the enzyme at the indicated concentrations (See Table 1) for 20 minutes at ambient temperature; substrate was then added and proteolytic activity assayed against Z-Arg-Arg-AMC. All”

[3] = system: lysate and culture supernatant proteolytic activity; type: biochemical, Entamoeba histolytica
Procedure: as §1
For extracts, trophozoites were resuspended in PBS with penicillin/streptomycin and lysed in a nitrogen cavitation bomb (Kontes Glass Co.; Vineland, N.J.) after equilibration at 30 atm (3×10^6N/m^2) for 1 hour at 40° C. After centrifugation, the supernatant of this preparation was passed through a 0.45 micron filter and designated as soluble "lysate".
as §2

[4] = system: Plasminogen; test: Plasminogen activator assay (125I-fibrin plates); type: biochemical; settings: 3 hours; 100 microliters culture supernatant or lysate; urokinase 10 ploug units; less plasminogen-free control
Procedure: Plasminogen activator activity was determined by the method of Unkeless, et al. (1973) as modified by Aggeler, et al. (1981). Briefly, 24-well plates were coated with [^125 I]-labeled fibrinogen, and incubated with calf serum for two hours at 37° C. to convert fibrinogen to fibrin. Plasminogen (280 ng; final concentration, 6 nM) was added in 50 mM Tris/HCl (pH 7.8) with 100 microliters of culture supernatant or amebic lysate or 50 microliters of MonoP-purified enzyme, to a final volume of 0.5 ml. Controls were incubated without plasminogen added. Aliquots of supernatant (50 microliters) from quadruplicate wells were counted in a gamma counter (Auto-Gamma 500; Packard Instrument Corp.; Downer's Grove, IL). Total available fibrin was determined by trypsin digest. Urokinase (10 ploug units, Calbiochem; La Jolla, CA) was assayed for comparison. Results were expressed as the percentage of total available fibrin degraded less the percentage degraded by the corresponding plasminogen-free control.

[5] = system: culture supernatant proteinase activity (Entamoeba histolytica trophozoites); test: Inhibition of culture supernatant proteolytic activity, Azocoll assay; type: biochemical; settings: inhibitor 2 mM
Procedure: as §1, §3
as §2, with “All” for “Inhibitors were preincubated with the enzyme at the indicated concentrations (See Table 1) for 20 minutes at ambient temperature; substrate was then added and proteolytic activity assayed against Z-Arg-Arg-AMC. All”

[6] = system: neutral thiol proteinase; test: Effect of DTT on enzyme activity in assays; type: biochemical, Entamoeba histolytica; settings: 2 mM DTT
Procedure: 2 mM DTT was maintained throughout as it enhanced activity 2-4-fold in assays and prolonged stability of the enzyme during storage. Even so, as much as 25% of the activity was lost per day in storage at -20° C.
All assays were performed in 100 mM Tris/HCl, 2 mM DTT, pH 7.4 unless otherwise noted.

[7] = system: type I collagen; test: Degradation of type I collagen, SDS-PAGE; type: biochemical, bovine; settings: 3.5 hours at 37° C.
Procedure: 40 microgram aliquots of fibronectin (Bethesda Research Laboratories (BRL); Bethesda, MD), laminin (BRL), or type 1 collagen ("Vitrogen 100"), (Vitrogen 100 is the Trademark of Collagen Corp., Palo Alto, CA for a sterile solution of purified bovine dermal type I collagen), diluted to 1 mg/ml in buffer with 150 mM NaCl, were mixed with 40 microliters of MonoP purified enzyme or 10-20 microliters of culture supernatant. Volumes were brought to 80 microliters with 100 mM Tris, pH 7.2, and DTT was added to a final concentration of 2 mM. Samples were incubated for 3.5 hours (fibronectin and collagen) or 20 hours (laminin) at 37° C. along with matched amounts of substrate or enzyme alone as controls. Collagen was also incubated with 0.5 micrograms of TPCK trypsin (trypsin with tosyl-phenylalanine-chloromethyl-ketone to inhibit any contaminating chymotrypsin, (Worthington Biochemical Corp.; Freehold, NJ) to assay for non-specific cleavage.
Reactions were terminated with 2x sample buffer, and analyzed by SDS-PAGE (laminin with 5% and 10% gels; fibronectin with 7% gels; collagen with 10% gels) for evidence of degradation; 80 microliters was loaded into each lane.

[8] = at the concentrations tested (Table I)

Molecule: O=C(O)CN(CCN(CC(=O)O)CC(=O)O)CC(=O)O [ethylenediaminetetracetic acid (EDTA), ethylenediaminetetracetic acid]
- Activity as % of control (without inhibitor), Culture Supernatant ([1]; inhibitor 10 mM, 20 min): 100 % of control
- Activity as % of control (without inhibitor), Mono P-purified Enzyme ([2]; inhibitor 10 mM): 100 % of control
- Effect of inhibitor on proteolytic activity of lysate and culture supernatant [3]: not affected

Molecule: CC(=O)N[C@@H](CC(C)C)C(=O)N[C@@H](CC(C)C)C(=O)N[C@H](C=O)CCCNC(=N)N [leupeptin]
- Activity as % of control (without inhibitor), Culture Supernatant ([1]; inhibitor 10 microM, 20 min): 68 % of control
- Effect of inhibitor on proteolytic activity of purified enzyme [2]: completely inhibited
- Activity as % of control (without inhibitor), Mono P-purified Enzyme ([2]; inhibitor 10 microM): 16 % of control
- Activity as % of control (without inhibitor), Mono P-purified Enzyme ([2]; inhibitor 50 microM): 0 % of control

Molecule: urokinase
- available fibrin degraded through plasminogen activation [4]: 38%

Molecule: CC(C)CC(=O)N[C@H](C(=O)N[C@H](C(=O)N[C@@H](CC(C)C)[C@@H](O)CC(=O)N[C@@H](C)C(=O)N[C@@H](CC(C)C)[C@@H](O)CC(=O)O)C(C)C)C(C)C [pepstatin A] (Isovaleryl-VV[Sta]A[Sta]-OH)
- Activity as % of control (without inhibitor), Culture Supernatant ([1]; inhibitor 100 microgram/ml, 20 min): 100 % of control
- Activity as % of control (without inhibitor), Mono P-purified Enzyme ([2]; inhibitor 100 microgram/ml): 100 % of control
- Effect of inhibitor on proteolytic activity of lysate and culture supernatant [3, 8]: not affected

Molecule: O=S(=O)(F)Cc1ccccc1 [phenylmethylsulfonyl fluoride (PMSF), phenylmethylsulfonyl fluoride]
- Activity as % of control (without inhibitor), Culture Supernatant [5]: 100 % of control
- Activity as % of control (without inhibitor), Mono P-purified Enzyme ([2]; inhibitor 2 mM): 100 % of control
- Effect of inhibitor on proteolytic activity of lysate and culture supernatant [3, 8]: not affected

Molecule: c1cnc2c(c1)ccc1cccnc12 [1,10-phenanthroline]
- Activity as % of control (without inhibitor), Culture Supernatant ([1]; inhibitor 2 mM, 20 min): 100 % of control
- Activity as % of control (without inhibitor), Mono P-purified Enzyme ([2]; inhibitor 2 mM): 100 % of control
- Effect of inhibitor on proteolytic activity of lysate and culture supernatant [3, 8]: not affected

Molecule: O[C@H](CS)[C@H](O)CS (racemic) [DTT, DL-dithiothreitol]
- enhancement of enzyme activity in assays [6]: 2-4 -fold

Molecule: CCN1C(=O)C=CC1=O [N--ethylmaleimide (NEM), N-ethylmaleimide]
- Activity as % of control (without inhibitor), Culture Supernatant ([1]; inhibitor 5 mM, 20 min preincubation): 5 % of control
- Effect of inhibitor on proteolytic activity of purified enzyme [2]: completely inhibited
- Activity as % of control (without inhibitor), Mono P-purified Enzyme ([2]; inhibitor 5 mM): 0 % of control
- Effect of inhibitor on proteolytic activity of lysate and culture supernatant [3, 8]: completely inhibited

Molecule: alpha1 -proteinase inhibitor: protein proteinase inhibitor obtained from Sigma
- Effect of inhibitor on proteolytic activity of purified enzyme [2]: completely inhibited

Molecule: Cc1ccc(S(=O)(=O)N[C@@H](CCCCN)C(=O)CCl)cc1 [tosyl-lysyl-chloromethyl ketone (TLCK), tosyl-lysyl-chloromethyl ketone]
- Activity as % of control (without inhibitor), Culture Supernatant ([1]; inhibitor 0.1 mM, 20 min): 0 % of control
- Effect of inhibitor on proteolytic activity of purified enzyme [2]: completely inhibited
- Activity as % of control (without inhibitor), Mono P-purified Enzyme ([2]; inhibitor 0.1 mM): 0 % of control
- Effect of inhibitor on proteolytic activity of lysate and culture supernatant [3, 8]: completely inhibited

Molecule: O=C(O)CI [iodoacetate]
- Activity as % of control (without inhibitor), Culture Supernatant ([1]; inhibitor 3 mM, 20 min): 0 % of control
- Effect of inhibitor on proteolytic activity of purified enzyme [2]: completely inhibited
- Activity as % of control (without inhibitor), Mono P-purified Enzyme ([2]; inhibitor 3 mM): 0 % of control
- Effect of inhibitor on proteolytic activity of lysate and culture supernatant [3]: completely inhibited

B1: trypsin: TPCK trypsin (Worthington) used to assay non-specific cleavage of collagen (protein, UniProt P00760 24-246, looked up)
Serine protease 1: IVGGYTCGANTVPYQVSLNSGYHFCGGSLINSQWVVSAAHCYKSGIQVRLGEDNINVVEGNEQFISASKSIVHPSYNSNTLNNDIMLIKLKSAASLNSRVASISLPTSCASAGTQCLISGWGNTKSSGTSYPDVLKCLKAPILSDSSCKSAYPGQITSNMFCAGYLEGGKDSCQGDSGGPVVCSGKLQGIVSWGSGCAQKNKPGVYTKVCNYVSWIKQTIASN
modifications: TPCK-treated
notes: TPCK trypsin (Worthington) used to assay non-specific cleavage of collagen
- degradation of type I collagen [7]: lack of non-specific proteolysis
